PubChem BioAssay AID1347042

System: MutuI BL cells, EBV BHLF1 promoter luciferase, 48 h
Experiment: inducers of EBV BHLF1 promoter reporter – cell-based, MutuI Burkitt lymphoma, luciferase, dose response (AID 1347042)

SMILES | EC50 [µM]
COc1ccccc1NC(=O)N1CCc2c([nH]c3ccc(Cl)cc23)C1c1ccc(C)cc1 (stereo not given) | 0.17
COC(=O)c1ccccc1NC(=O)N1CCc2c([nH]c3ccc(Cl)cc23)C1c1ccc(OC)cc1 (stereo not given) | 0.158
COC(=O)c1sccc1NC(=O)N1CCc2c([nH]c3ccc(OC)cc23)C1c1ccc(C)cc1 (stereo not given) | 0.576

The next compounds have a lower EC50 than those just listed; values first:

EC50 [µM] | SMILES
0.108 | CCOC(=O)c1ccccc1NC(=O)N1CCc2c([nH]c3ccc(OC)cc23)C1c1ccc(C)cc1 (stereo not given)
0.113 | COc1ccc(C2c3[nH]c4ccc(Cl)cc4c3CCN2C(=O)Nc2ccc(OC)cc2OC)cc1 (stereo not given)
